pIC50: −log10 of the molar value. Where “and” joins values, the source holds several entries; their conditions need not be identical. Equal entries are not always repeated. Where two headings read alike, the source gives them in different places.
How the values were obtained:
Mtb DXR = Mtb DXR (Mycobacterium tuberculosis, UniProt P9WNS1); assay: Inhibition of Mtb DXR enzyme; type: biochemical, M. tuberculosis; conditions: percent remaining enzyme activity at 100 μM compound
Procedure: Phosphonic acid salts and prodrugs were evaluated as inhibitors of DXR from Mtb and P. falciparum and the results are shown in Table 6. Initially, the percent remaining enzyme activity was studied using a treatment of each compound at a single concentration of 100 μM. […] In general, the compounds display greater inhibition of DXR from P. falciparum compared with activity against the Mtb homolog.

HepG2 cells = assay: HepG2 cell inhibition (cytotoxicity) assay; type: cell-based; conditions: for pIC50: Homo sapiens
Procedure: For cytotoxicity assays, HepG2 cells (ATCC HB-8065) were grown in DMEM supplemented with 4 mM L-glutamine (Gibco #11966-025) with either 4.5 g/L D-glucose or 1.8 g/L galactose as carbon source. Cells were trypsinized, resuspended in the respective medium (DMEM/glutamine/glucose or DMEM/glutamine/galactose) to 4×10^5 cells/mL and 50 μL/well transferred to flat-bottom white opaque tissue culture plates (Falcon #353296) containing 50 μL/well of the respective medium with test compound. Compound concentrations were two-fold dilutions ranging from 50 μM to 0.049 μM as well as the drug-free DMSO-only control. All concentrations were tested in duplicate for each carbon source. After 24 h incubation at 5% CO2, 37° C., 10 μL/well of Celltiter-Glo reagent (Promega #G9241) was added and luminescence recorded after 20 min incubation in the dark.

[1] = system: P. falciparum had1 mutant strain; type: cell-based; conditions: for sensitivity in had1+HAD1-GFP strain: mutant supplied with wild-type copy of HAD1; for resistance of had1 parasites compared with wild-type 3D7: shift of IC50 curve
Mtb = Mtb growth inhibition (MIC99) in 7H9 and GAST-Fe media; type: cell-based, M. tuberculosis; conditions: Mycobacterium tuberculosis
Procedure: Selected analogs were tested for the growth inhibition against P. falciparum and Mtb in both rich media (7H9) and minimal media (GAST-Fe) following reported procedures.

P. falciparum [2] = assay: Growth inhibition against P. falciparum; type: cell-based
P. falciparum DXR [3] = target: T1, P. falciparum DXR (Plasmodium falciparum, UniProt Q8IKG4); assay: Inhibition of P. falciparum DXR enzyme; type: biochemical
T1 sequence (Q8IKG4 73-488): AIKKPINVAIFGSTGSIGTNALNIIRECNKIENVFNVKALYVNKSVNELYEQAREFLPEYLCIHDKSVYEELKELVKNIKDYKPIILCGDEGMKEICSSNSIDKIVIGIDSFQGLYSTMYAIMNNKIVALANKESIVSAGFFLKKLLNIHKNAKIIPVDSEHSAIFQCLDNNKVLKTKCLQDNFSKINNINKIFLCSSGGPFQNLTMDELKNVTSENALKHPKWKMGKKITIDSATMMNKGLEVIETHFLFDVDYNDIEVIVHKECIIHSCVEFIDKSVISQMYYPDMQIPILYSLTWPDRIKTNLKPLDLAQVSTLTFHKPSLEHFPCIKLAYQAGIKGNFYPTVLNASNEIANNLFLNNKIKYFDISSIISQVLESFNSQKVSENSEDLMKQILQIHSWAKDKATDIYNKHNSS

in vitro = in vitro ADME; conditions: mouse plasma, compound 1 μM, 37° C.; read-out: Plasma stability (t1/2)
Procedure: (§1) In this protocol, the metabolic stability of compounds at 1 μM was determined in mouse liver microsomes (MLM) and mouse plasma. For microsomal stability each test compound was incubated in an aqueous reaction mixture consisting of 0.25 […], 1.2 mM NADPH, 3.3 mM MgCl2, and 100 mM potassium phosphate buffer (pH 7.4). For plasma stability each test compound was incubated in mouse plasma (VWR). After incubation at 37° C. a 50 μL aliquot of the reaction was transferred to 200 μL ice cold acetonitrile containing internal standard (Enalapril, 100 ng/mL). The quenched reaction mixtures were centrifuged at 3200 rpm for 5 min, and 100 μL of the supernatant were transferred to 96-well plate and analyzed by LC-MS/MS using an Applied Biosystems-Sciex API 4000. Analyte/internal standard peak area ratios were used to evaluate stability. […] An Amour C18 column (2.1×30 mm, 5 μm; Analytical Sales and Services, Pompton Plains, N.J.) was used for chromatographic separation. Mobile phases were 0.1% formic acid, 1 mM triethylamine in water and acetonitrile with a flow rate of 0.35 mL/min. The starting phase was 0% acetonitrile increased to 100% acetonitrile over 3 minutes. Peak areas were integrated using Analyst Software (AB Sciex, Foster City, Calif.).

[4] = Metabolic stability in mouse liver microsomes; type: in vitro ADME; conditions: pH 7.4
Procedure: as §1

[5] = In vivo exposure study in mice; parameters: species or system Swiss Webster mice
Procedure: We designed a compound exposure study to determine plasma concentration of 12a under similar conditions to the efficacy study.
Animal care and all procedures were conducted at Charles River Laboratories (Wilmington, Mass.) and performed in accordance with the National Institutes of Health Guide for the Care and Use of Laboratory Animals and approved by the institutional animal care and use committee. […] The suspension was administered to unfasted female Swiss Weber mice (n=3) at 20 mg/kg i.p. Plasma samples (10 μL) were removed at 0.25, 0.5, 1, 2, 4, 6 and 8 h and stored at −80° C. Plasma samples were added to ice cold acetonitrile containing the internal standard, glafenine, as appropriate to bring samples into the standard curve range (50-10,000 ng/ml), then centrifuged for 5 minutes at 3200 rpm and the supernatant transferred to a 96-well sample plate for analysis by liquid chromatography-tandem mass spectrometry. The MRM transitions for glafenine and 12a were m/z: 370.9>296.9 and 180.075>119.9, respectively. A Synergi 4 μm Hydro-RP column (250×4.6 mm, 80 Å) was used for chromatographic separation. Mobile phases were 0.1% formic acid in water and acetonitrile with a flow rate of 1.2 mL/min. The starting phase was 0% acetonitrile for 3 minutes, increased to 60% acetonitrile over 6 minutes. Peak areas were integrated using Analyst Software (AB Sciex, Foster City, Calif.).

P. falciparum [6] = conditions: earlier work / reference drug; read-out: P. falciparum growth IC50; cited from earlier work
P. falciparum DXR [7] = target: T1, P. falciparum DXR; conditions: background; read-out: P. falciparum DXR IC50; cited from earlier work
MEP pathway metabolites = assay: MEP pathway metabolite assay (LC-MS/MS); type: cell-based, P. falciparum; conditions: 3D7, 65 nM (5× IC50), 10 h
Excerpt: Thus, a mass spectrometry-based method was used to quantify the MEP metabolites from untreated P. falciparum versus parasites treated with this compound (FIG. 4). These metabolites include the DXR substrate (1-deoxy-D-xylulose 5-phosphate, DOXP), the DXR product (2-C-methylerythritol 4-phosphate, MEP), and the downstream metabolites (4-diphosphocytidyl-2-C-methylerythritol (CDP-ME) and 2-C-methyl-D-erythritol 2,4-cyclopyrophosphate (MEcPP)).
Cultures were lysed with 5% saponin, the parasite pellets washed with 1× phosphate-buffered saline (PBS), and the pellets stored at −80° C. […]
For LC separation, a Luna-NH2 column (3 um, 150×2 mm, Phenomenex) was used flowing at 0.4 mL/min. […] Metabolites were detected using MRM transitions that were previously optimized using standards. […] For quantification, an external standard curve was prepared using a series of standard samples containing different concentrations of metabolites and fixed concentration of the internal standard. […]

P. berghei ANKA = assay: P. berghei-infected mouse model of malaria; type: in vivo; conditions: for luciferin signal intensity (parasitemia): read seven days after infection
Procedure: Groups of mice were infected with luciferase-based blood-stage P. berghei ANKA by intraperitoneal (ip) injection. […] Seven days after infection, intensity of the luciferin signal was measured, correlating to the parasitemia burden.

[8] = minimal media (GAST-Fe), read-out: Mtb MIC99 Gast/Fe
[9] = rich media (7H9), read-out: Mtb MIC99 7H9
[10] = Plasmodium falciparum; Table 6, growth inhibition; read-out: P.f. IC50
[11] = Table 6, N-acyl analogs, read-out: Pf Dxr IC50
[12] = mouse liver microsomes, compound 1 μM, 37° C., read-out: Metabolic stability MLM (t1/2)

Chain of Mtb DXR (P9WNS1 whole entry): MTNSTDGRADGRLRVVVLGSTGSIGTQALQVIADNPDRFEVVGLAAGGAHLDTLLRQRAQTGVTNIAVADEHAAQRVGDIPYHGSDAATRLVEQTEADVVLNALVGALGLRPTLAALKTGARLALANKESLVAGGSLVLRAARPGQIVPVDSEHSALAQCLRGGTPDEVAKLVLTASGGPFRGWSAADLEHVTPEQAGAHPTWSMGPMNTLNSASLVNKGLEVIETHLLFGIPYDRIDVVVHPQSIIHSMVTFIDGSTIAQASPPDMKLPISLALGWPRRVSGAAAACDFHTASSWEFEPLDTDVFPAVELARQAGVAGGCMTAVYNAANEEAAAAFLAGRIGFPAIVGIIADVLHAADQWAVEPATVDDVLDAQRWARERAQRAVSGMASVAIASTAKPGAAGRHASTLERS

O=C(c1ccccc1)N(O)C/C=C/P(=O)([O-])O.[Na+] [Compound 32a, Sodium hydrogen [(1E)-3-(N-hydroxy-1-phenylformamido)prop-1-en-1-yl]phosphonate]
Mtb Dxr (% Residue) (Mtb DXR): (36.87) %
pIC50 (HepG2 cells; HepG2, Table 6, cytotoxicity, read-out: HepG2 IC50): < 4.30
resistance of had1 parasites compared with wild-type ([1]; in words): more resistant
MIC99 (Mtb; [8]): 25 µg/mL
MIC99 (Mtb; [9]): > 50 µg/mL
IC50 (P. falciparum [2]; [10]): 0.103 µg/mL
pIC50 (P. falciparum DXR [3]; [11]): 6.96 and 6.97

O=CN(O)C/C=C/P(=O)([O-])O.[Na+] [Compound 12a, Sodium hydrogen [(1E)-3-(N-hydroxyformamido)prop-1-en-1-yl]phosphonate]
SI^Pf Selectivity Index for P. falciparum (HepG2 cells; HepG2 IC50/P.falciparum IC50): 2632
pIC50 (HepG2 cells; HepG2, read-out: HepG2 IC50): < 4.30
sensitivity in had1+HAD1-GFP strain [1]: restored
resistance of had1 parasites compared with wild-type 3D7 [1]: 3.4 fold
half-life at 1 μM (in vitro): > 120 min
half-life at 1 μM [4, 12]: > 60 min
pIC50 (P. falciparum [2]; Plasmodium falciparum, read-out: P. falciparum growth IC50): 7.72
pIC50 (P. falciparum [2]; Plasmodium falciparum, read-out: Pf IC50): 7.72
plasma concentration at 8 h relative to Pf IC50 of 18a in vitro ([5]; after 18a 20 mg/kg i.p.): approximately 200 fold
concentration at 8 h ([5]; female, Swiss Webster, mouse, in vivo, 20 mg/kg, read-out: plasma concentration of 12a at 8 h): 485 ng/mL and 2.8 µM
pIC50 (P. falciparum DXR [3]; read-out: P. falciparum DXR IC50): 7.04

O=C(CCCc1ccccc1)N(O)C/C=C/P(=O)([O-])O.[Na+] [Compound 32d, Sodium hydrogen [(1E)-3-(N-hydroxy-4-phenylbutanamido)prop-1-en-1-yl]phosphonate]
Mtb Dxr (% Residue) (Mtb DXR): (29.2) %
MIC99 (Mtb; [8]): > 100 µg/mL
MIC99 (Mtb; [9]): > 100 µg/mL
IC50 (P. falciparum [2]; [10]): 1.6 µg/mL
pIC50 (P. falciparum DXR [3]; [11]): 6.05

O=C(CCc1ccccc1)N(O)C/C=C/P(=O)([O-])O.[Na+] [Compound 32c, Sodium hydrogen [(1E)-3-(N-hydroxy-3-phenylpropanamido)prop-1-en-1-yl]phosphonate]
Mtb Dxr (% Residue) (Mtb DXR): (62.3) %
MIC99 (Mtb; [8]): > 100 µg/mL
MIC99 (Mtb; [9]): > 100 µg/mL
IC50 (P. falciparum [2]; [10]): 3.3 µg/mL
pIC50 (P. falciparum DXR [3]; [11]): 5.87

C[C@@H]1CC[C@H]2[C@@H](C)C(=O)O[C@@H]3O[C@@]4(C)CC[C@@H]1[C@]32OO4 [artemisinin]
pIC50 (P. falciparum [6]): 7.98

CC(=O)N(O)CCCP(=O)(O)O [FR900098]
pIC50 (P. falciparum DXR [7]): 7.62

CC(C)(C)C(=O)OCOP(=O)(/C=C/CN(O)C=O)OCOC(=O)C(C)(C)C [Compound 18a, [({[(2,2-dimethylpropanoyl)oxy]methoxy}[(1E)-3-(N-hydroxyformamido)prop-1-en-1-yl]phosphoryl)oxy]methyl 2,2-dimethylpropanoate]
DOXP levels, treated vs untreated parasites (MEP pathway metabolites): did not show significant difference
levels of metabolites downstream of DXR, treated vs untreated parasites (MEP pathway metabolites; MEP, CDP-ME, MEcPP): reduced levels
pIC50 (HepG2 cells; HepG2, Table 5, cytotoxicity, read-out: HepG2 IC50): < 4.30
sensitivity in had1+HAD1-GFP strain [1]: restored
resistance of had1 parasites compared with wild-type 3D7 [1]: 2.5 fold
half-life at 1 μM (in vitro): < 5 min
half-life at 1 μM ([4]; mouse, microsomes): < 5 min
half-life [4, 12]: < 5 min
pIC50 (P. falciparum [2]; Plasmodium falciparum; Table 4, growth inhibition; read-out: Pf IC50): 7.89
pIC50 (P. falciparum [2]; Plasmodium falciparum; read-out: P. falciparum growth IC50): 7.89
conversion of prodrug to 12a in vivo ([5]; 20 mg/kg i.p., Swiss Webster mice): rapidly converted to 12a
drop in luciferin signal intensity compared to vehicle (P. berghei ANKA; 20 mg/kg i.p.): 3 log
luciferin signal intensity (parasitemia) (P. berghei ANKA; 20 mg/kg i.p. daily for five days): 2.87×10^3
luciferin signal intensity (parasitemia) (P. berghei ANKA; 50 mg/kg i.p. daily for five days): 2.34×10^3

Reference: patent US11098072B2, “Alkenyl and beta-substituted phosphonates as antimicrobial agents” (The George Washington University, priority 2017, dated 2021)
